In US20090304686A1, “INTERFERING IN ACTIVATION OF AN IMMUNE CELL BY INFLUENCING INTERACTION OF LAIR AND COLLAGEN” (UNIVERSOTAIR MEDISCH CENTRUM UTRECHT, priority 2006, published 2009):
Entries after “also recorded” stand apart in the source; their conditions may differ.

Legend:
hLAIR-1-IgG = molecular target: T1, hLAIR-1-IgG (Homo sapiens, UniProt Q6GTX8); experiment: BIAcore binding of hLAIR-1-IgG to immobilized triple-helical peptides; details: hLAIR-1-IgG 780 nM, 5 μl/min, ~250 RU peptide
T1 construct: chimeric proteins of the extracellular domain of hLAIR-1 or LAIR-2 fused to the Fc region of human IgG1 were prepared; made in house
T1 sequence (Q6GTX8 22-165 limits assumed): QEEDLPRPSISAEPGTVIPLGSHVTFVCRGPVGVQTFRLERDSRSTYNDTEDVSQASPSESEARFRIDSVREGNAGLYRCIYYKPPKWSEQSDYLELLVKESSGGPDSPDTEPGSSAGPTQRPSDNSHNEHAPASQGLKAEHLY
Description: (§1) Surface plasmon resonance (BIAcore) binding studies were performed using a BIAcore2000 system (BIAcore AB, Uppsala, Sweden). Approximately 2000-3000 response units (RU) of acid-soluble human collagen type I or III (Sigma) were immobilized on a CM5 biosensor chip using the amine coupling kit as instructed by the supplier. Immobilized triple-helical peptides composed of GCO(GPO)10GCOG-NH2 ((GPO)10, also known as collagen-related peptide, CRP^6) and GCP(GPP)10GCPG-NH2 ((GPP)10) were described previously^6. Approximately 250 RU (GPP)10 or (GPO)10 peptide trimers were immobilized using a cysteine coupling kit according manufacturers instructions. Analysis was performed in buffer (125 mM NaCl, 2.5 mM CaCl2, 0.005% (v/v) Tween 20, and 25 mM Hepes, (pH 7.4)) at 25° C. at a flow rate of 20 μl/min for collagen I and III interaction-studies and 5 μl/min for the immobilized peptides. […] Increasing concentrations of hLAIR-1-IgG were injected and allowed to reach an equilibrium plateau for 10 minutes. The delay between injections was 13 min, during which time the biosensor chip was flushed with buffer. In case of peptide-binding studies, biosensor chips were regenerated by injection of 0.1 M H3PO4 (2 min, 5 μl/min).

LAIR-2 fusion protein = molecular target: T2, LAIR-2 fusion protein (Homo sapiens, UniProt Q6ISS4); experiment: BIAcore binding of LAIR-2 fusion protein to immobilized trimeric peptides; details: 5 μl/min, ~250 RU peptide
T2 construct: chimeric proteins of the extracellular domain of hLAIR-1 or LAIR-2 fused to the Fc region of human IgG1 were prepared; made in house
T2 sequence (Q6ISS4 22-152): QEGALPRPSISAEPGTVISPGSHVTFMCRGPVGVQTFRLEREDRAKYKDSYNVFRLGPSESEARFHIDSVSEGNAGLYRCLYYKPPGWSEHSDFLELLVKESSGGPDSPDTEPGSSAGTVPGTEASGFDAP
Description: as §1
The surface plasmon resonance binding studies were performed as described before(15). LAIR-2-IgG dimer concentration was calculated based on a theoretical mass of 82.5 kDa.

[1] = system: parental 2B4 NFAT-GFP reporter T cell hybridoma cells; experiment: Inhibition of CD3 signaling in parental (untransfected) 2B4 NFAT-GFP reporter cells; type: cell-based, Mouse; details: for inhibition of CD3-induced activation of parental reporter cells: high peptide concentrations
hLAIR-1 [2] = molecular target: T3, hLAIR-1 (Homo sapiens, UniProt Q6GTX8); experiment: FcεRI-induced degranulation assay, hLAIR-1 transfected RBL-2H3 cells; type: cell-based; design: expressed in transfected cells; details: plate-bound together with TNP-BSA 0.8 μg/ml
T3 sequence (Q6GTX8 22-287): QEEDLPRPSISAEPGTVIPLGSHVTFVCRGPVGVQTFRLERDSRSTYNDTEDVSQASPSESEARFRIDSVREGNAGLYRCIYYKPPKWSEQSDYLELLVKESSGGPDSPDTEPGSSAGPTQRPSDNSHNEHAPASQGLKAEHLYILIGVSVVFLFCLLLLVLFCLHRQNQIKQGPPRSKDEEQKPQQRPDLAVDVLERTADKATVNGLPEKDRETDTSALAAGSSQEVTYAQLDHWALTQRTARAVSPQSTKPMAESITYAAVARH
Description: 96-well MAXIsorp flat-bottom plates (Nunc) were coated overnight at 4° C. with BSA, or TNP conjugated to BSA (0.8 μg/ml) and indicated amounts of synthetic trimeric peptides (100 μl/well, 2 mM acetic acid in PBS). Meanwhile, untransfected or hLAIR-1a transfected RBL-2H3 (23) cells were sensitized with IgE anti-TNP mAbs at 4° C. for 30 minutes and subsequently washed for three times in medium (AIM-V; Gibco-BRL). After washings of the plates, 5.0×10^5 cells in 70 μl medium were added to each well, and plates were incubated at 37° C. for 1 hour. Subsequently, cultures were transferred to PCR tubes, centrifuged and the supernatants were assayed for β-glucuronidase activity as described (23).

hLAIR-1 [3] = molecular target: T3, hLAIR-1; experiment: Inhibition of CD3 signaling in hLAIR-1a transfected 2B4 NFAT-GFP reporter cells; type: cell-based; design: expressed in transfected cells; host or cells: Mouse 2B4 NFAT-GFP reporter T cell hybridoma; details: for inhibition of CD3-induced activation of hLAIR-1 transfected reporter cells (in words): plate-bound peptide 10, 3.3, 1.1, 0.37 μg/ml; for inhibitory capacity at low peptide concentration (in words): 1.1 μg/ml; for inhibition of CD3-induced activation of hLAIR-1 transfected reporter cells: low peptide concentration 1.1 μg/ml
Description: For detection of inhibition of mouse CD3 signaling: 2B4 T cell hybridoma cells stably transduced with an NFAT-GFP reporter and hLAIR-1a were generated. 1.25 μg/ml anti-mouse CD3 (PharMingen, San Diego, Calif.) was coated overnight at 4° C. in 96-well MAXIsorp flat-bottom plates (Nunc) together with an indicated amount of synthetic trimeric peptides in a total volume of 100 μl/well. The next day, plates were washed and 200 μl of 2.5×10^5 reporter cells/ml in medium were added to each well, and plates were incubated at 37° C. for 22 hrs and then analyzed for GFP expression by flow cytometry on a FACSCalibur (BD Biosciences). Typically, ˜90 percent of the reporters expressed GFP upon CD3 stimulation.

hLAIR-1-CD3ζ chimera = molecular target: T4, hLAIR-1-CD3ζ chimera (Homo sapiens, UniProt Q6GTX8); experiment: 2B4 NFAT-GFP reporter cell assay, hLAIR-1-CD3ζ chimera; type: cell-based; details: for most potent hLAIR-1 activators in order of strength: order: III-30, II-56, II-30, III-38, II-42, III-51; for functional triggering of hLAIR-1-CD3ζ (GFP expression, in words): plate-bound ligand
T4 construct: a chimeric protein consisting of the extracellular domain of hLAIR-1 fused to the transmembrane and intracellular domain of CD3ζ; expressed in transfected cells; host or cells: Mouse 2B4 NFAT-GFP reporter T cell hybridoma, pMX puro retroviral vector
T4 sequence (Q6GTX8 22-165 limits assumed): T1 sequence (Q6GTX8 22-165 limits assumed)
Description: For detection of LAIR-1 ligands: 2B4 T cell hybridoma cells stably transduced with an NFAT-GFP reporter and hLAIR-1-CD3ζ were analyzed as described (11).
2B4 T cell hybridoma cells were stably transduced with an NFAT-GFP reporter construct(40) and hLAIR-1-CD3ζ(15) and analyzed as described(15, 40).

Substance | inhibition of FcεRI-induced degranulation (β-glucuronidase release) (hLAIR-1 [2]) | inhibition of CD3-induced activation of hLAIR-1 transfected reporter cells (in words) (hLAIR-1 [3]) | most potent hLAIR-1 activators in order of strength (hLAIR-1-CD3ζ chimera) | further results
GCP(GPP)10GCPG-NH2 [reference compound] | not | did not inhibit | – | binding of hLAIR-1-IgG to immobilized peptide (hLAIR-1-IgG): did not; interaction of LAIR-2 with immobilized trimeric peptide (LAIR-2 fusion protein): not; inhibition of CD3-induced activation of parental reporter cells (in words) [1]: did not inhibit
GPC(GPP)5-GMOGERGGLGSOGPKGDKGEOGGOGAD-(GPP)5GPC-NH2 [III-32] | – | – | – | functional triggering of hLAIR-1-CD3ζ (GFP expression, in words) (hLAIR-1-CD3ζ chimera): potent LAIR-1 binders and activators
GPC(GPP)5-GPAGEOGREGSOGADGPOGRDGAAGVK-(GPP)5GPC-NH2 [II-47] | – | did not induce inhibition | – | –
GPC(GPP)5-GPRGRSGETGPAGPOGNOGPOGPOGPO-(GPP)5GPC-NH2 [II-56] | potent inhibitors | efficiently inhibiting | most potent hLAIR-1 activators | inhibition of CD3-induced activation of parental reporter cells [1]: ~30%; inhibitory capacity at low peptide concentration (in words) (hLAIR-1 [3]): full inhibitory capacity; also recorded: full inhibitory potential
GPC(GPP)5-GRAGEOGLQGPAGPOGEKGEOGDDGPS-(GPP)5GPC-NH2 [II-42] | – | – | most potent hLAIR-1 activators | –
GPC(GPP)5-GTOGTDGPKGASGPAGPOGAQGPOGLQ-(GPP)5GPC-NH2 [II-30] | – | efficiently inhibiting | most potent hLAIR-1 activators | inhibition of CD3-induced activation of hLAIR-1 transfected reporter cells (hLAIR-1 [3]): ~60%

More lines, main results first:

inhibition of FcεRI-induced degranulation (β-glucuronidase release) (hLAIR-1 [2]) | inhibition of CD3-induced activation of hLAIR-1 transfected reporter cells (in words) (hLAIR-1 [3]) | most potent hLAIR-1 activators in order of strength (hLAIR-1-CD3ζ chimera) | Substance | further results
potent inhibitors | efficiently inhibiting | most potent hLAIR-1 activators | GPC(GPP)5-GAOGLRGGAGPOGPEGGKGAAGPOGPO-(GPP)5GPC-NH2 [III-30] | inhibition of CD3-induced activation of parental reporter cells [1]: ~30%; inhibitory capacity at low peptide concentration (in words) (hLAIR-1 [3]): full inhibitory capacity
– | efficiently inhibiting | most potent hLAIR-1 activators | GPC(GPP)5-GEGGPOGVAGPOGGSGPAGPOGPQGVK-(GPP)5GPC-NH2 [III-38] | inhibition of CD3-induced activation of hLAIR-1 transfected reporter cells (hLAIR-1 [3]): ~60%
– | – | most potent hLAIR-1 activators | GPC(GPP)5-GPAGPAGAOGPAGSRGAOGPQGPRGDK-(GPP)5GPC-NH2 [III-51] | functional triggering of hLAIR-1-CD3ζ (GFP expression, in words) (hLAIR-1-CD3ζ chimera): potent LAIR-1 binders and activators
